# According to patent US20170305882A1, “BENZYL SUBSTITUTED INDAZOLES AS BUB1 KINASE INHIBITORS” (Bayer Pharma Aktiengesellschaft, priority 2014, published 2017):
# Counter-ions that a name gives are not always drawn. Like-named read-outs stand apart in the source and are kept apart here.
# What was measured:
# [1] = target: T1, (recombinant) catalytic domain of human Bub1 (amino acids 704-1085) (Homo sapiens, UniProt O43683); test: Equilibrium probe competition assay (TR-FRET kinase binding assay); details: read-out: IC50 (Assay 5, probe competition)
# T1 construct: catalytic domain of human Bub1 (amino acids 704-1085); 6xHis (N); made in house; host or cells: Hi5 insect cells
# From the text: Equilibrium Probe Competition Assay:
# Bub1 binding affinity of compounds described in the present invention were quantified using a time-resolved fluorescence energy transfer (TR-FRET) kinase binding assay which measures displacement of the synthetic fluorescent probe 5-[({2-[2-({2-[1-(4-ethoxy-2,6-difluorobenzyl)-1H-indazol-3-yl]-4-(pyridin-4-ylamino)pyrimidin-5-yl}oxy)ethoxy]ethyl}carbamothioyl)amino]-2-(6-hydroxy-3-oxo-3H-xanthen-9-yl)benzoic acid (5-5-1) by the (recombinant) catalytic domain of human Bub1 (amino acids 704-1085). The enzyme was expressed in Hi5 insect cells with N-terminal 6×His/AviTag@ seqences, purified by affinity-(Ni-NTA) and size exclusion chromatography and site-specific biotinylated ex-vivo using a commercially available kit (Avidity).
# In a typical assay 11 different concentrations of each compound (0.1 nM, 0.33 nM, 1.1 nM, 3.8 nM, 13 nM, 44 nM, ˜0.15 μM, ˜0.51 μM, ˜1.7 μM, 5.9 μM and 20 μM) were tested in duplicate within the same microtiter plate. To this end, 100-fold concentrated compound solutions (in DMSO) were made by serial dilution (1:3.4) of freshly prepared 2 mM stocks in a clear low volume 384-well source microtiter plate (Greiner Bio-One, Frickenhausen, Germany), from which 50 nl of compounds were transferred into a black low volume test microtiter plate from the same supplier. Subsequently 2 μL of a solution containing biotinylated Bub1 (the final concentration of Bub1 was adjusted depending on the activity of the enzyme lot in order to be within the linear dynamic range of the assay: typically ˜200 pM were used) and 1 nM Streptavidin Terbium Cryptate (Cisbio, No. 610SATLB) in aqueous assay buffer [50 mM Tris/HCl pH 7.5, 200 mM potassium chloride (KCl), 1.0 mM dithiothreitol (DTT), 0.1 mM sodium ortho-vanadate, 1% (v/v) glycerol, 0.01% (w/v) bovine serum albumine (BSA), 0.005% (v/v) Triton X-100 (Sigma), were added to the compounds in the test plate and the mixture was incubated for 15 min at 22′C to allow pre-equilibration of the putative enzyme-inhibitor complexes before the start of the probe competition reaction, which was initiated by the addition of 3 μL 1.67-fold concentrated solution (in assay buffer) of 5-5-1 (final concentration: 1.5 nM). The resulting mixture (5 μL final volume) was Incubated at 220 during 0, 15, 30, 60, 120, 240 and 1440 min. After each time point the resonance energy transfer from the Streptavidin Tb cryptate to the 3′,6′-dihydroxy-3H-spiro[2-benzofuran-1,9′-xanthen]-3-one moiety of 5-5-1 was measured in order to quantify the amount of fluorescent probe displaced by the test compounds. To this end, the fluorescence emissions at 520 nm and 490 nm after excitation at 330-350 nm were measured in a Pherastar FS TR-FRET plate reader, (BMG Lab technologies, Offenburg, Germany) and the ratio of the emissions (520 nm/490 nm) was taken as Indicator for the amount of Bub1/5-5-1 equilibrium complexes. The data were normalized using two sets of control wells for high-(=enzyme reaction without inhibitor=0%=Minimum inhibition) and low-(=all assay components without enzyme=100%=Maximum inhibition) Bub1 activity. IC50 values were calculated by fitting the normalized inhibition data to a 4-parameter logistic equation (Minimum, Maximum, IC50, Hill; Y=Max+(Min−Max)/(1+(X/IC50)Hill)).
# [2] = Stability in buffer at various pH values (HPLC detection); format: physicochemical; details: for recovery at 60 min, 0.2 mg/mL / recovery at 120 min, 0.2 mg/mL / recovery at 240 min, 0.2 mg/mL / recovery at 1440 min, 0.2 mg/mL: read-out: Recovery (Assay 6, prodrug stability); for Stability pH4: % Test Compound after 4 h [F(t = 4 h) × 100/F(t = 0 h)]: pH 4, 4 h; for Stability pH4: % Test Compound after 4 h [F(t = 4 h) × 100/F(t = 0 h)] / Stability pH7.4: % Test Compound after 4 h [F(t = 4 h) × 100/F(t = 0 h)]: 37° C., prodrug remaining; for Stability pH7.4: % Test Compound after 4 h [F(t = 4 h) × 100/F(t = 0 h)]: pH 7.4, 4 h
# Protocol: Stability in Buffer at Various pH Values (HPLC Detection)
# 0.3 mg of the test compound was solved in 0.1 ml dimethylsulfoxide and 0.4 ml acetonitrile. For complete dissolution the HPLC vial with the sample solution was sonified for about 20 seconds. Then 1.0 ml of the respective buffer solution was added and the sample was again treated in the ultrasonic bath.
# Buffer Solutions Used: • pH 4.0: Fluka buffer, Order No. 33643 (11.76 g citric acid, 2.57 g sodium chloride and 2.72 g sodium hydroxide)
# pH 7.4: 90 g of sodium chloride, 13.61 g of potassium dihydrogen phosphate and 83.35 g of 1 M sodium hydroxide solution were made up to 1 L with Millipore water and then diluted 1:10.
# 10 μl portions of the sample solution were analysed by HPLC at different times (0 h, 1 h, 2 h, 4 h and 24 h) at 37° C. The peak areas in percentage were used for quantification.
# Agilent 1100 with DAD (G1315B), binary pump (G1312A), autosampler (G1329A), column oven (G1316A), thermostat (G1330B); column: Kromasil 100 C18, 250 mm×4 mm, 5 μm; column temperature: 37° C.; eluent A: water+5 ml of perchloric acid/litre, eluent B: acetonitrile.
# The ratios of the peak area (F) at different times in relation to the peak area at the starting point are shown in Table 3 for representative examples: […]
SMILES,IC50 ([1]; Time 15 min),IC50 ([1]; Time 30 min),IC50 ([1]; Time 60 min),IC50 ([1]; Time 90 min),IC50 ([1]; Time 120 min),IC50 ([1]; Time 240 min),IC50 ([1]; Time 1440 min),"recovery at 60 min, 0.2 mg/mL [2]","recovery at 120 min, 0.2 mg/mL [2]","recovery at 240 min, 0.2 mg/mL [2]","recovery at 1440 min, 0.2 mg/mL [2]",Stability pH4: % Test Compound after 4 h [F(t = 4 h) × 100/F(t = 0 h)] [2],Stability pH7.4: % Test Compound after 4 h [F(t = 4 h) × 100/F(t = 0 h)] [2]
"CCOc1cc(F)c(Cn2nc(-c3ncc(OCCCOC(=O)[C@H](C)NC(=O)[C@@H](N)CCCCN)c(Nc4ccnc(C(F)F)c4)n3)c3ccccc32)c(F)c1 [Example 4-1-1, 3-[(4-{[2-(difluoromethyl)pyridin-4-yl]amino}-2-[1-(4-ethoxy-2,6-difluorobenzyl)-1H-Indazol-3-yl]pyrimidin-5-yl)oxy]propyl L-lysyl-L-alaninate, salt with trifluoroaceticacid]",1.4 nM,1.5 nM,1.4 nM,1.5 nM,1.3 nM,1.5 nM,2 nM,76%,57%,32%,0%,100%,32%
"CCOc1cc(F)c(Cn2nc(-c3ncc(OCCCOC(=O)[C@H](C)NC(=O)[C@H](N)CCCCN)c(Nc4ccnc(NC(C)=O)c4)n3)c3ccccc32)c(F)c1 [Example 4-1-3, 3-[(4-{[2-(acetylamino)pyridin-4-yl]amino}-2-[1-(4-ethoxy-2,6-difluorobenzyl)-1H-indazol-3-yl]pyrimidin-5-yl)oxy]propyl D-lysyl-L-alaninate, salt with trifiuoroaceticacid]",1.1 nM,0.65 nM,0.42 nM,0.27 nM,0.25 nM,0.2 nM,0.17 nM,75%,56%,31%,0%,100%,31%
"CCOc1cc(F)c(Cn2nc(-c3ncc(OCCCOC(=O)[C@H](C)NC(=O)[C@H](N)CCCCN)c(Nc4cc(C)ncc4C)n3)c3ccccc32)c(F)c1 [Example 4-1-6, 3-({4-[(2,5-dimethylpyridin-4-yl)amino]-2-[1-(4-ethoxy-2,6-difluorobenzyl)-1H-indazol-3-yl]pyrimidin-5-yl}oxy)propyl D-lysyl-L-alaninate, salt with trifluoroaceticacid]",,,,,,,,,,,,101%,53%
"CCOc1cc(F)c(Cn2nc(-c3ncc(OCCCOC(=O)[C@H](C)NC(=O)[C@@H](N)CCCNC(=N)N)c(Nc4ccncc4Cl)n3)c3ccccc32)c(F)c1 [Example 4-1-8, 3-({4-[(3-chloropyridin-4-yl)amino]-2-[1-(4-ethoxy-2,6-difluorobenzyl)-1H-indazol-3-yl]pyrimidin-5-yl}oxy)propyl L-arginyl-L-alaninate]",,,,,,,,,,,,100%,56%
"CCOc1cc(F)c(Cn2nc(-c3ncc(OCCCOC(=O)[C@@H](NC(=O)[C@@H](N)CCCCN)C(C)C)c(Nc4ccncc4Cl)n3)c3ccccc32)c(F)c1 [Example 4-1-9, 3-({4-[(3-chloropyridin-4-yl)amino]-2-[1-(4-ethoxy-2,6-difluorobenzyl)-1H-indazol-3-yl]pyrimidin-5-yl}oxy)propyl L-lysyl-L-valinate]",,,,,,,,,,,,99%,99%
"CCOc1cc(F)c(Cn2nc(-c3ncc(OCCCOC(=O)[C@H](C)NC(=O)[C@@H](N)CCCNC(=N)N)c(Nc4ccnc(NC(C)=O)c4)n3)c3ccccc32)c(F)c1 [Example 4-1-4, 3-[(4-{[2-(acetylamino)pyridin-4-yl]amino}-2-[1-(4-ethoxy-2,6-difluorobenzyl)-1H-indazol-3-yl]pyrimidin-5-yl)oxy]propyl L-arginyl-L-alaninate, salt with trifiuoroaceticacid]",2.8 nM,0.58 nM,0.61 nM,0.55 nM,0.54 nM,0.32 nM,0.33 nM,86%,73%,53%,3%,100%,53%
"CCOc1cc(F)c(Cn2nc(-c3ncc(OCCCOC(=O)[C@H](C)NC(=O)[C@@H](N)CCCCN)c(Nc4ccncc4Cl)n3)c3ccccc32)c(F)c1 [Example 4-1-5, 3-({4-[(3-chloropyridin-4-yl)amino]-2-[1-(4-ethoxy-2,6-difluorobenzyl)-1H-indazol-3-yl]pyrimidin-5-yl}oxy)propyl L-lysyl-L-alaninate, salt with trifluoroaceticacid]",1.5 nM,0.82 nM,0.6 nM,0.51 nM,0.46 nM,0.27 nM,0.25 nM,81%,65%,42%,0%,101%,42%
"CCOc1cc(F)c(Cn2nc(-c3ncc(OCCCOC(=O)[C@H](C)NC(=O)[C@@H](N)CCCCN)c(Nc4ccnc(NC(C)=O)c4)n3)c3ccccc32)c(F)c1 [Example 4-1-2, 3-[(4-{[2-(acetylamino)pyridin-4-yl]amino}-2-[1-(4-ethoxy-2,6-difluorobenzyl)-1H-indazol-3-yl]pyrimidin-5-yl)oxy]propyl L-lysyl-L-alaninate, salt with trifiuoroaceticacid]",,,,,,,,,,,,100%,30%
"CCOc1cc(F)c(Cn2nc(-c3ncc(OCCCOC(=O)[C@H](C)NC(=O)[C@@H](N)CCCCN)c(Nc4cc(C)ncc4C)n3)c3ccccc32)c(F)c1 [Example 4-1-7, 3-({4-[(2,5-dimethylpyridin-4-yl)amino]-2-[1-(4-ethoxy-2,6-difluorobenzyl)-1H-indazol-3-yl]pyrimidin-5-yl}oxy)propyl L-lysyl-L-alaninate, salt with trifluoroaceticacid]",,,,,,,,,,,,99%,43%
